Measurements as given in patent US20130203069A1, “Dynamic Assay for Maintenance and Disruption of Tissue Level Organization and Architecture” (THE REGENTS OF THE UNIVERSITY OF CALIFORNIA, priority 2012, published 2013).

Columns and labels:
HCT116 = HCT116 epithelial cell line (Sahai et al. 2002); cited from earlier work
MDCK = MDCK epithelial cell line (Sahai et al. 2002); cited from earlier work
[1] = system: HMEC strain 240L (LEPs and MEPs); assay: Microwell self-organization assay; type: cell-based, human; details: for self-organization of LEPs and MEPs: actomyosin inhibitors (ML-7 3×10^−6 M, Y27632 10^−5 M) added at the beginning, refreshed every 24 h, over 48 h; for organization measured at 48 h: inhibitor added a single time after 24 h, when organization was already underway; for self-organization at the 24-h time point / differences in LEP:MEP ratios in the core and at the periphery by 48 h: inhibitor added a single time at 0 h; for differences in LEP:MEP ratios in the core and at the periphery by 48 h: P<0.01
Text: Micropatterned substrata were made according to Tan et al. (2004) “Simple approach to micropattern cells on common culture substrates by tuning substrate wettability”. Tissue Eng 10:865-872, hereby incorporated by reference. Polydimethylsiloxane (PDMS) microwell arrays were formed by curing prepolymer with base:cure ratio of 10:1 (Sylguard 184) against a prepatterned master. The arrays of wells were peeled away and were cut into 1-cm^2 pieces that were affixed with a few microliters of uncured PDMS to the bottom of a 24-well plate (Mitek). Plates with microwells were UV oxidized for 7 min (UVO-Cleaner 42; Jelight Co.), blocked with 2 mg/mL BSA (Sigma) for 1 h under vacuum, and rinsed with PBS and M87A. All self-organizing experiments were conducted with HMEC strain 240L. Flow cytometry-sorted HMEC were stained with CM-DiI, SP-DiOC18 (Steinberg M S, (1962) On the mechanism of tissue reconstruction by dissociated cells. I. Population kinetics, differential adhesiveness, and the absence of directed migration. Proc Natl Acad Sci USA 48:1577-1582), or DiIC18(Wei C, et al., (2007) Self-organization and branching morphogenesis of primary salivary epithelial cells. Tissue Eng 13:721-735)-DS (Invitrogen), used at 1:1,000 in PBS for 5 min at 37° C. followed by 15 min at 4° C. Cells were washed extensively with medium after staining Dye-stained HMEC were mixed at a ratio of 1:1 (LEP:MEP) or 1:1 (randomly stained green:red HMEC cultures) and were resuspended in M87A at 1 million cells/mL. […] HMEC were imaged at 0, 24, or 48 h with a spinning disk confocal microscope (Carl Zeiss). Red and green fluorescence channels in images taken at the ˜25-μm z axis positions of 30 wells from each condition at each time point were binarized using the Threshold function, merged into a Z-stack, and then averaged using ImageJ software (National Institutes of Health). Gray-scaled average images corresponding to LEP and MEP were merged into a single image with red or green look-up tables applied to each average image.
Heat maps were generated. Briefly, heat maps were normalized to the highest intensity value and were used to quantify sorting using the expression log2(mean green pixel intensity/mean red pixel intensity). A script was written using MATLAB (Mathworks) to plot differential intensity as a function of the distance from the center and to compute the average plot from θ of 0-360° (Fig S2).

MEPs = assay: Atomic force microscopy measurement of stiffness (MEPs); type: cell-based, human; details: 45 cells per condition
Protocol: (§1) Once samples were equilibrated to 25° C., cell deformity was measured, and stiffness was calculated as previously described (Alcaraz J, et al., (2008) Laminin and biomimetic extracellular elasticity enhance functional differentiation in mammary epithelia. EMBO J 27:2829-2838.). The resulting data were plotted using Prism(GraphPad Software) (n=45).

LEPs = assay: Atomic force microscopy measurement of stiffness (LEPs); type: cell-based, human; details: 45 cells per condition
Protocol: as §1

HMEC cell surfaces = assay: Recombinant E-cadherin (recEcad) binding to HMEC cell surfaces by flow cytometry; type: cell-based, human; details: 6 h pretreatment/preincubation of HMEC in suspension; recEcad 100 μg/mL 1 h on ice
Protocol: (§2) To determine effects of inhibitors, Y27632 at 10−5 M (Calbiochem) or ML-7 at 3×10−6 M (Calbiochem) was added to HMEC medium for 6 h at 37° C. (5% CO2) before trypsinization and subsequent measurement of E-cadherin by FACS. To measure the ability of recEcad to bind to HMEC in presence of inhibitors, cells were suspended in their medium in Falcon tubes (to prevent adhesion to a culture surface) in the presence of Y27632 at 10−5M (Calbiochem), ML-7 at 3×10−6M (Calbiochem), or anti-E-cadherin (100 μg/mL; clone HECD-1; Invitrogen), or in calcium-free medium for 6 h at 37° C. (5% CO2). recEcad conjugated to human IgG Fc region was added at 100 μg/mL for 1 h on ice. HMEC then were washed with medium and incubated with anti-human IgG-A633 (1:500; Invitrogen) in their own medium.

E-cadherin = E-cadherin surface expression on LEPs and MEPs by flow cytometry; type: cell-based, human; details: Y27632 10−5 M or ML-7 3×10−6 M in HMEC medium for 6 h
Protocol: E-cadherin expression on LEP and MEP was measured by addition of anti-E-cadherin-A647 (clone 67A4; Biolegend) to the above mixture at 1:50.
as §2

mouse mammary organoids = details: time-lapse imaging studies; less catastrophic than in the HMEC microwell assay; cited from earlier work

| SMILES | breakdown and recycling of mature adherens junctions (HCT116) | breakdown and recycling of mature adherens junctions (MDCK) | self-organization of LEPs and MEPs [1] | organization measured at 48 h [1] | self-organization at the 24-h time point [1] | differences in LEP:MEP ratios in the core and at the periphery by 48 h [1] | MEP stiffness (MEPs) | LEP stiffness (LEPs) | recEcad binding to HMEC surfaces (HMEC cell surfaces) | lineage-specific differences in E-cadherin expression (E-cadherin) | bilayered organization of mouse mammary organoids (mouse mammary organoids) |
| --- | --- | --- | --- | --- | --- | --- | --- | --- | --- | --- | --- |
| C[C@@H](N)[C@H]1CC[C@H](C(=O)Nc2ccncc2)CC1 [Y27632] | unable to break down and recycle | unable to break down and recycle | prevented self-organization | preserved the self-organized LEP cores | prevented self-organization | differences in LEP:MEP ratios in the core and at the periphery were observed | unaffected | caused softening | did not prevent | did not change | disrupted the clean bilayered organization |
| O=S(=O)(c1cccc2c(I)cccc12)N1CCCNCC1 [ML-7] |  |  | prevented self-organization | obliterated organization | prevented self-organization | differences in LEP:MEP ratios in the core and at the periphery were observed | unaffected | caused softening | did not prevent | did not change | disrupted the clean bilayered organization |
